The values that follow come from EP4692088A1, “COMPOUND ACTING AS WRN HELICASE INHIBITOR” (SHANGHAI JEYOU PHARMACEUTICAL CO., LTD., priority 2023, dated 2024).

The subject of one data set is SW620 cells. Put plainly: γH2AX induction assay (HTRF Phospho-H2AX), SW620. In kind it is cell-based. The note with it: Homo sapiens, SW-620 (MSS), incubated for 2-3 days, read-out: γ-H2AX induction SW-620 (EC50 nM). Here is the method: SW48, HCT116, and SW620 cells were plated into 96-well cell culture plates at a density of 15,000-25,000 cells/well and cultured overnight in a 37°C incubator. The test compounds, which were gradient-diluted with DMSO, were added and incubated for 2-3 days. The γ-H2AX level was detected using HTRF Phospho-H2AX (SER139) Detection Kits. The 4× Lysis buffer and Detection buffer were equilibrated to room temperature for later use. The 4× Lysis buffer was diluted to 1× Lysis buffer using ddH2O. After the medium was aspirated, 50 µL of 1× Lysis buffer was added to each well and shaken at room temperature for 30 minutes for lysis. 16 µL of lysate was transferred to a 384-well plate, followed by the addition of 4 µL of diluted antibody mixture (Phospho-H2AX d2 antibody and Phospho-H2AX Eu Cryptate antibody were each diluted 20-fold using Detection buffer, and the two antibodies were then mixed uniformly at a 1:1 volume ratio). The mixture was incubated at room temperature for 2-24 h, and fluorescence signals at […] and 615 nm were detected using a microplate reader. Parallel treatment plates were simultaneously set up in the experiment, and cell viability was detected using the CellTiter-Glo kit. The CellTiter-Glo reagent was equilibrated to room temperature, and an appropriate amount was added to the cell plate, followed by shaking at room temperature for 12 min. The luminescence signal was detected using a microplate reader.
The fluorescence signal values of DMSO-treated wells and positive drug-treated wells were used as negative and positive controls, respectively, to calculate the level of γ-H2AX induced by the compounds. The concentration-induction rate curve was fitted using the "log(agonist) vs. response -- Variable slope (four parameters)" equation in GraphPad Prism 8 software to obtain the EC50. [formula] [formula]

The nature of data set [1]: Pharmacokinetic test in rats. Format: in vivo. Conditions: rat; SD rats, male, oral gavage, 10 mg/kg, plasma. As to the method:
SD rats were taken as test animals. Example 4, Example 15, and Comparative Example HRO761 were given by gavage. The drug concentrations in rat plasma at different time points were determined by LC-MS/MS to investigate the pharmacokinetic characteristics of Example 4, Example 15, and Comparative Example HRO761 in rats.
• Experimental drugs: Example 4, Example 15, and Comparative Example HRO761; • Animals: SD rats, male, 240-260 g, purchased from Shanghai Jihui Laboratory Animal Care Co.,Ltd.
An appropriate amount of Example 4, Example 15, and Comparative Example HRO761 was weighed and added to an appropriate amount of dimethyl sulfoxide, solutol, and saline (final solvent: 5% DMSO + 10% solutol + 85% saline). The mixture was vortexed and sonicated to prepare a 1.0 mg/mL dosing solution.
The rats in gavage groups (3 rats per group) of Example 4, Example 15, and Comparative Example HRO761 were administered by oral gavage after overnight fasting (dose: 10 mg/kg, administration volume: 10 mL/kg), and the rats were fed 4 h after administration.
0.2 mL of blood was collected from the animals before administration and at 0.083 h, 0.25 h, 0.5 h, 1 h, 2 h, 4 h, 6 h, 8 h, and 24 h after administration, and anticoagulated with sodium heparin. Blood samples were placed on ice after collection, and plasma was separated by centrifugation (centrifugation conditions: 8000 rpm, 5 min). The collected plasma was stored at -80°C before analysis.
The contents of Example 4, Example 15, and Comparative Example HRO761 in rat plasma after oral administration were determined by LC-MS/MS.
Based on the calculated concentrations of the compounds in plasma at different time points, the pharmacokinetic parameters of Example 4, Example 15, and Comparative Example HRO761 in rats were calculated using winnonlin software. The pharmacokinetic parameters of Example 4, Example 15, and Comparative Example HRO761 of the present disclosure are shown in Table 14.

The next data set concerns the target T1, WRN enzyme (Homo sapiens, UniProt Q14191).
T1 construct: host or cells: eukaryotic cells (not further specified)
Put plainly: biochemical. As to the method: The WRN enzyme used in the experiment has a His-TEV tag at the N-terminus and is expressed in eukaryotic cells with a purity of 90%. The assay kit (ADP-Glo™ Kinase Assay) was purchased from Promega (Cat. No. V9101), aliquoted, and then stored in the refrigerator at -40°C. This kit could quantitatively detect the amount of ADP generated in the reaction. WRN hydrolyzed ATP to produce ADP. The ADP-Glo reagent was added to deplete excess ATP in the reaction system, followed by the addition of Kinase Detection Reagent to convert the ADP produced by the reaction into ATP and produce chemiluminescence. The enzyme activity of WRN can be reflected by detecting the chemiluminescence signal using a microplate reader.
Single-stranded DNA was annealed to form double-stranded DNA. 5× Annealing Buffer: 50 mM Tris pH 8.0, 100 mM NaCl. Annealing program: 95°C, 5 min.
2× WRN enzyme (1 nM) and 2× substrate (1 nM double-stranded DNA, 100 µM ATP) were prepared using a buffer (20 mM Bicine (pH 7.5), 10 mM KCl, 10 mM MgCl2, 0.005% BSG, 0.002% Tween 20, 1 mM TCEP). The test compound was dissolved in DMSO to 10 mM and was gradient-diluted using a 96-well V-bottom plate. First, 25 µL of 2× WRN enzyme and 0.5 µL of compound were added to a 96-well plate and incubated at room temperature for 30 min. Then, 25 µL of 2× substrate was added, and the reaction was carried out at room temperature for 60 min. 5 µL was taken from the reaction plate and transferred to a 384-well plate for detection. 5 µL of ADP-Glo reagent was added and incubated at room temperature for 60 min, followed by the addition of 10 µL of Kinase Detection Reagent and incubation at room temperature for 40 min. The chemiluminescence signal was detected using a microplate reader.

pIC50: −log10 of the molar value.

T1 sequence (Q14191 whole entry): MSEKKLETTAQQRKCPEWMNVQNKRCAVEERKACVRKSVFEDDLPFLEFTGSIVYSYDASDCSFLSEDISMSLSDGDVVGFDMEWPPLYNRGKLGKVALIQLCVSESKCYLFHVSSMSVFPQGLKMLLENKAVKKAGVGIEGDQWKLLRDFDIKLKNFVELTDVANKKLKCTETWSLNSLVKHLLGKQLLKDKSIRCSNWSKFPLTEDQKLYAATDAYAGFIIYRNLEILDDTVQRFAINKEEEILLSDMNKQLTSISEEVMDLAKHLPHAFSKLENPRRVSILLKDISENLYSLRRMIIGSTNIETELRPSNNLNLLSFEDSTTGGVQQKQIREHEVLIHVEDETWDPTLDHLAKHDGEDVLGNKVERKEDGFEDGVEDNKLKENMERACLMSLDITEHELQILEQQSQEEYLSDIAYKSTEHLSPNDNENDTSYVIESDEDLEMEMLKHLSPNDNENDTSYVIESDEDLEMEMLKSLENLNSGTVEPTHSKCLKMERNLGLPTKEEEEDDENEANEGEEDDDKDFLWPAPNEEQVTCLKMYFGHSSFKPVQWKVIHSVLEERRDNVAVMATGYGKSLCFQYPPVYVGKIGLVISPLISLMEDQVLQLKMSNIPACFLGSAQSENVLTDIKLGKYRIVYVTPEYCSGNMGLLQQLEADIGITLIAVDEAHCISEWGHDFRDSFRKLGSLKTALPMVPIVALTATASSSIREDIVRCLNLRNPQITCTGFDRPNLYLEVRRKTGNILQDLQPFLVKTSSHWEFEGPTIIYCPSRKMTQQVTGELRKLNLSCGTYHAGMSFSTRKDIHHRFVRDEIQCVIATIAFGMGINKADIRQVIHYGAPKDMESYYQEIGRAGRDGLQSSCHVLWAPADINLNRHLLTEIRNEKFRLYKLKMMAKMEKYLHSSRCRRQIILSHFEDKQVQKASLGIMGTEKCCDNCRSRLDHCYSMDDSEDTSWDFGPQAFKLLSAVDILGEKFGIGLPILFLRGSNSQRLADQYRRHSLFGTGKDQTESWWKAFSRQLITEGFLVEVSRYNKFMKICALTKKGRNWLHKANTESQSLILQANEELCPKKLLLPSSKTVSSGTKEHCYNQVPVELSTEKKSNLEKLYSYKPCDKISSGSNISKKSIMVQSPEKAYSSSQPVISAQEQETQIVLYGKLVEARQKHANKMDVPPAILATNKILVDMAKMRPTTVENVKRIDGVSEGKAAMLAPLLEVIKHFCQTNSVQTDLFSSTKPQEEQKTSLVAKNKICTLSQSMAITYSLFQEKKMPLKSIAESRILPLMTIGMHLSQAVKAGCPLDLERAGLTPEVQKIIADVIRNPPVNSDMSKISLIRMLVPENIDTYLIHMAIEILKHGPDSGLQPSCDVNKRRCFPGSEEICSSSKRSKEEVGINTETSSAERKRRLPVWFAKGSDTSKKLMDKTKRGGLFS

Turning to `CCc1c(N2CCN(C(=O)c3ncnc(C)c3O)CC2)c(=O)c2nn(C3=CCOCC3)nc2n1CC(=O)Nc1ccc(C(F)(F)F)cc1Cl` [Example 4], the EC50 in the data set with SW620 cells was greater than 10000 nM. In data set [1], this molecule came in with an AUC(0-inf) of 170 µg·h/mL and a Cmax of 19.2 µg/mL. Moreover, on WRN enzyme, the pIC50 was 7.05.
`CCc1c(N2CCN(C(=O)c3ncnc(C)c3O)CC2)c(=O)c2nn(C3=CCOCC3)nc2n1CC(=O)Nc1cc(F)c(Cl)cc1Cl` [Example 22]: the EC50 in the data set with SW620 cells was greater than 10000 nM. The same molecule had a pIC50 at WRN enzyme of 7.33.
Consider `CCc1c(N2CCN(C(=O)c3ncnc(C)c3O)CC2)c(=O)c2nn(C3=CCOCC3)nc2n1CC(=O)Nc1cc(F)c(C(F)(F)F)cc1Cl` [Example 15], for which the EC50 in the data set with SW620 cells was greater than 10000 nM. In data set [1], this molecule returned an AUC(0-inf) of 46.4 µg·h/mL and a Cmax of 9.02 µg/mL. This molecule had a pIC50 against WRN enzyme of 7.46.
